This passage reports IC50 results from patent US8791102B2, “Acetanilide sphingosine-1-phosphate receptor antagonists” (Exelixis, Inc., priority 2008, dated 2014).

The assay concerns the target T1, human S1P1 receptors (Homo sapiens, UniProt P21453).
T1 construct: host or cells: HEK293
Kind of assay: S1P1R antagonist assay (fluorescent membrane potential dye, cAMP readout). Format: cell-based. The conditions noted are these: HEK293 cells expressing human S1P1 receptors and CNG channel; 500 nM NECA; S1P1R agonist 10 nM; 90 minutes; read-out: EC50 or IC50 value.

T1 sequence (P21453 whole entry): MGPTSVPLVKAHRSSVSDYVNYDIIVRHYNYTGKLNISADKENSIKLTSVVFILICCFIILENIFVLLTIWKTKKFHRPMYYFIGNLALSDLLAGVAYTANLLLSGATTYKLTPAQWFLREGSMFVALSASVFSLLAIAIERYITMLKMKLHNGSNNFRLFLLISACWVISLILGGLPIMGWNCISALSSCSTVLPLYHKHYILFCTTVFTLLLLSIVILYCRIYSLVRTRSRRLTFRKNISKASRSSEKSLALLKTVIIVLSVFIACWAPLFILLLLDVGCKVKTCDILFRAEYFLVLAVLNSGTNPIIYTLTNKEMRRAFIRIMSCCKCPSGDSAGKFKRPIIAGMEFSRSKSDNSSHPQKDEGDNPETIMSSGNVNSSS

Take `O=C(Nc1ccc(Oc2ccc(F)cc2)cc1)[C@@H]1C[C@@H](Cc2ccccc2)CN1C(=O)CCCc1ccc2c(c1)OCCO2` [Compound 33, (2S,4R)-4-benzyl-1-(4-(2,3-dihydrobenzo[b][1,4]dioxin-6-yl)butanoyl)-N-(4-(4-fluorophenoxy)phenyl)pyrrolidine-2-carboxamide]: the IC50 – broadly, the concentration at which inhibition is half-maximal – was no more than 300 nM.

As to `COc1cccc2cc(C(=O)NC(COCc3ccccc3)C(=O)Nc3ccc(Oc4ccccc4)cc3)oc12` (centres unmarked) [Compound 367, 7-(methyloxy)-N-(2-oxo-1-{[(phenylmethyl)oxy]methyl}-2-{[4-(phenyloxy)phenyl]amino}ethyl)-1-benzofuran-2-carboxamide], the IC50 is greater than 1000 nM.

`O=C(CSc1ncccn1)NC(COCc1ccccc1)C(=O)Nc1ccc(Oc2ccccc2)cc1` (centres unmarked) [Compound 331, N-(2-oxo-1-{[(phenylmethyl)oxy]methyl}-2-{[4-(phenyloxy)phenyl]amino}ethyl)-2-(pyrimidin-2-ylthio)acetamide]: the IC50 is greater than 1000 nM.

As to `O=C(CCCC(=O)c1cccs1)NC(COCc1ccccc1)C(=O)Nc1ccc(Oc2ccccc2)cc1` (centres unmarked) [Compound 323, 5-oxo-N-(2-oxo-1-{[(phenylmethyl)oxy]methyl}-2-{[4-(phenyloxy)phenyl]amino}ethyl)-5-(2-thienyl)pentanamide], the IC50 fell in the range of 300 to 1000 nM.

For the compound `O=C(Nc1ccc(Oc2ccc(F)cc2)cc1)[C@@H]1C[C@@H](Cc2ccccc2)CN1C(=O)Cc1c(F)cccc1F` [Compound 95, (2S,4R)-4-benzyl-1-(2-(2,6-difluorophenyl)acetyl)-N-(4-(4-fluorophenoxy)phenyl)pyrrolidine-2-carboxamide], the IC50 is no more than 300 nM.

For the compound `O=C(Nc1ccc(Oc2ccc(F)cc2)cc1)[C@@H]1C[C@@H](Cc2ccc(F)cc2F)CN1C(=O)Cn1nccn1` [Compound 52, (2S,4R)-1-(2-(2H-1,2,3-triazol-2-yl)acetyl)-4-(2,4-difluorobenzyl)-N-(4-(4-fluorophenoxy)phenyl)pyrrolidine-2-carboxamide], the IC50 is no more than 300 nM.

For the compound `CC(C)CCC(=O)NC(COCc1ccccc1)C(=O)Nc1ccc(Oc2ccccc2)cc1` (centres unmarked) [Compound 287, 4-methyl-N-(2-oxo-1-{[(phenylmethyl)oxy]methyl}-2-{[4-(phenyloxy)phenyl]amino}ethyl)pentanamide], the IC50 is greater than 1000 nM.

Regarding `O=C(NC(COCc1ccccc1)C(=O)Nc1ccc(Oc2ccccc2)cc1)c1ccnc2ccccc12` (centres unmarked) [Compound 365, N-(2-oxo-1-{[(phenylmethyl)oxy]methyl}-2-{[4-(phenyloxy)phenyl]amino}ethyl)quinoline-4-carboxamide], the IC50 was greater than 1000 nM.

As for `O=C(Nc1ccc(Oc2ccc(F)cc2)cc1)[C@@H]1C[C@@H](Cc2ccc(Cl)cc2Cl)CN1C(=O)Cn1cncn1` [Compound 180, (2S,4R)-1-(2-(1H-1,2,4-triazol-1-yl)acetyl)-4-(2,4-dichlorobenzyl)-N-(4-(4-fluorophenoxy)phenyl)pyrrolidine-2-carboxamide], the IC50 was no more than 300 nM.

As to `O=C(CN1CCNCC1)N[C@@H](COCc1ccccc1)C(=O)Nc1ccc(Oc2ccc(F)cc2)cc1` [Compound 205, (S)-3-(benzyloxy)-N-(4-(4-fluorophenoxy)phenyl)-2-(2-(piperazin-1-yl)acetamido)propanamide], the IC50 is no more than 300 nM.

Take `Cc1cncc(C(=O)NC(COCc2ccccc2)C(=O)Nc2ccc(Oc3ccccc3)cc2)c1` (centres unmarked) [Compound 18, N-(3-(benzyloxy)-1-oxo-1-(4-phenoxyphenylamino)propan-2-yl)-5-methylnicotinamide]: the IC50 was greater than 1000 nM.

Consider `CCCCC(C)C(=O)NC(COCc1ccccc1)C(=O)Nc1ccc(Oc2ccccc2)cc1` (centres unmarked) [Compound 346, 2-methyl-N-(2-oxo-1-{[(phenylmethyl)oxy]methyl}-2-{[4-(phenyloxy)phenyl]amino}ethyl)hexanamide], for which the IC50 lay in the range of 300 to 1000 nM.

As for `O=C(Nc1ccc(Oc2ccc(F)cc2)cc1)[C@@H]1C[C@@H](Oc2ccccc2)CN1C(=O)Cn1cncn1` [Compound 259, (2S,4R)-1-(2-(1H-1,2,4-triazol-1-yl)acetyl)-N-(4-(4-fluorophenoxy)phenyl)-4-phenoxypyrrolidine-2-carboxamide], the IC50 fell in the range of 300 to 1000 nM.

For the compound `O=C(CC(F)(F)F)NC(COCc1ccccc1)C(=O)Nc1ccc(Oc2ccccc2)cc1` (centres unmarked) [Compound 22, N-(3-(benzyloxy)-1-oxo-1-(4-phenoxyphenylamino)propan-2-yl)-3,3,3-trifluoropropanamide], the IC50 lay in the range of 300 to 1000 nM.

On to `COc1cc(CC(=O)NC(COCc2ccccc2)C(=O)Nc2ccc(Oc3ccccc3)cc2)cc(OC)c1OC` (centres unmarked) [Compound 392, N-(2-oxo-1-{[(phenylmethyl)oxy]methyl}-2-{[4-(phenyloxy)phenyl]amino}ethyl)-2-(3,4,5-trimethoxyphenyl)acetamide], for which the IC50 is 300 to 1000 nM.

Consider `O=C(Cc1cccc(Br)c1)NC(COCc1ccccc1)C(=O)Nc1ccc(Oc2ccccc2)cc1` (centres unmarked) [Compound 384, N-(2-oxo-1-{[(phenylmethyl)oxy]methyl}-2-{[4-(phenyloxy)phenyl]amino}ethyl)-2-(3-bromophenyl)acetamide], for which the IC50 was greater than 1000 nM.

Regarding `O=C(CN1CCN(c2ccc(F)cc2)CC1)N[C@@H](COCc1ccccc1)C(=O)Nc1ccc(Oc2ccc(F)cc2)cc1` [Compound 218, (S)-3-(benzyloxy)-N-(4-(4-fluorophenoxy)phenyl)-2-(2-(4-(4-fluorophenyl)piperazin-1-yl)acetamido)propanamide], the IC50 was 300 to 1000 nM.

For `O=C(Nc1ccc(Oc2ccc(F)cc2)cc1)[C@@H]1C[C@@H](Cc2ccccc2)CN1C(=O)CSc1ncccn1` [Compound 94, (2S,4R)-4-benzyl-N-(4-(4-fluorophenoxy)phenyl)-1-(2-(pyrimidin-2-ylthio)acetyl)pyrrolidine-2-carboxamide], the IC50 was no more than 300 nM.

Turning to `O=C(CN1C(=O)CSC1=S)NC(COCc1ccccc1)C(=O)Nc1ccc(Oc2ccccc2)cc1` (centres unmarked) [Compound 335, N-(2-oxo-1-{[(phenylmethyl)oxy]methyl}-2-{[4-(phenyloxy)phenyl]amino}ethyl)-2-(4-oxo-2-thioxothiazolidin-3-yl)acetamide], the IC50 was greater than 1000 nM.

Take `COc1cccc(C[C@@H]2C[C@@H](C(=O)Nc3ccc(Oc4ccc(F)cc4)cc3)N(C(=O)Cn3cncn3)C2)c1` [Compound 70, (2S,4R)-1-(2-(1H-1,2,4-triazol-1-yl)acetyl)-N-(4-(4-fluorophenoxy)phenyl)-4-(3-methoxybenzyl)pyrrolidine-2-carboxamide]: the IC50 is no more than 300 nM.

As for `O=C(CN1CCN(c2ncccc2C(F)(F)F)CC1)N[C@@H](COCc1ccccc1)C(=O)Nc1ccc(Oc2ccc(F)cc2)cc1` [Compound 112, (S)-3-(benzyloxy)-N-(4-(4-fluorophenoxy)phenyl)-2-(2-(4-(3-(trifluoromethyl)pyridin-2-yl)piperazin-1-yl)acetamido)propanamide], the IC50 is greater than 1000 nM.

On to `O=C(CCCCc1ccccc1)N[C@@H](COCc1ccccc1)C(=O)Nc1ccc(Oc2ccc(F)cc2)cc1` [Compound 104, (S)—N-(3-(benzyloxy)-1-(4-(4-fluorophenoxy)phenylamino)-1-oxopropan-2-yl)-5-phenylpentanamide], for which the IC50 was greater than 1000 nM.

Regarding `O=C(Nc1ccc(Oc2ccc(F)cc2)cc1)[C@@H]1C[C@H](Cc2ccc(F)cc2)CN1C(=O)Cn1cncn1` [Compound 76, (2S,4S)-1-(2-(1H-1,2,4-triazol-1-yl)acetyl)-4-(4-fluorobenzyl)-N-(4-(4-fluorophenoxy)phenyl)pyrrolidine-2-carboxamide], the IC50 is no more than 300 nM.

On to `O=C(CN1CCN(C(=O)C2CCCO2)CC1)N[C@@H](COCc1ccccc1)C(=O)Nc1ccc(Oc2ccc(F)cc2)cc1` (stereo partly drawn) [Compound 237, (2S)-3-(benzyloxy)-N-(4-(4-fluorophenoxy)phenyl)-2-(2-(4-(tetrahydrofuran-2-carbonyl)piperazin-1-yl)acetamido)propanamide], for which the IC50 is 300 to 1000 nM.

Regarding `CCCC(C)C(=O)NC(COCc1ccccc1)C(=O)Nc1ccc(Oc2ccccc2)cc1` (centres unmarked) [Compound 286, 2-methyl-N-(2-oxo-1-{[(phenylmethyl)oxy]methyl}-2-{[4-(phenyloxy)phenyl]amino}ethyl)pentanamide], the IC50 is greater than 1000 nM.

For `O=C(Cn1ccnc1)N[C@@H](COCc1ccccc1)C(=O)Nc1ccc(Oc2ccc(F)cc2)cc1` [Compound 134, (S)-2-(2-(1H-imidazol-1-yl)acetamido)-3-benzyloxy-N-(4-(4-fluorophenoxy)phenyl)propanamide], the IC50 was no more than 300 nM.

Consider `O=C(CN1CCN(c2ccccc2)CC1)N[C@@H](COCc1ccccc1)C(=O)Nc1ccc(Oc2ccc(F)cc2)cc1` [Compound 225, (S)-3-(benzyloxy)-N-(4-(4-fluorophenoxy)phenyl)-2-(2-(4-phenylpiperazin-1-yl)acetamido)propanamide], for which the IC50 was in the range of 300 to 1000 nM.

Regarding `O=C(Nc1ccc(Oc2ccc(F)cc2)cc1)[C@@H]1C[C@@H](Cc2ccccc2)CN1C(=O)Cn1nnc2ccccc21` [Compound 176, (2S,4R)-1-(2-(1H-benzo[d][1,2,3]triazol-1-yl)acetyl)-4-benzyl-N-(4-(4-fluorophenoxy)phenyl)pyrrolidine-2-carboxamide], the IC50 was no more than 300 nM.

Turning to `COCC(=O)NC(COCc1ccccc1)C(=O)Nc1ccc(Oc2ccccc2)cc1` (centres unmarked) [Compound 284, N-(2-oxo-1-{[(phenylmethyl)oxy]methyl}-2-{[4-(phenyloxy)phenyl]amino}ethyl)-2-methoxyacetamide], the IC50 was greater than 1000 nM.

For `O=C(Nc1ccc(Oc2ccc(F)cc2)cc1)[C@@H]1C[C@@H](Cc2ccccc2)CN1C(=O)CSc1ccncc1` [Compound 96, (2S,4R)-4-benzyl-N-(4-(4-fluorophenoxy)phenyl)-1-(2-(pyridin-4-ylthio)acetyl)pyrrolidine-2-carboxamide], the IC50 was no more than 300 nM.

For the compound `O=C(Cc1cccc(Br)c1)N[C@@H](COCc1ccccc1)C(=O)Nc1ccc(Oc2ccc(F)cc2)cc1` [Compound 244, (S)-3-(benzyloxy)-2-(2-(3-bromophenyl)acetamido)-N-(4-(4-fluorophenoxy)phenyl)propanamide], the IC50 was 300 to 1000 nM.

For `O=C(Cc1c[nH]cn1)N[C@@H](COCc1ccccc1)C(=O)Nc1ccc(OCc2ccccc2)cc1` [Compound 211, (S)-2-(2-(1H-imidazol-4-yl)acetamido)-3-(benzyloxy)-N-(4-(benzyloxy)phenyl)propanamide], the IC50 was no more than 300 nM.
